In patent US20220175925A1, “PHARMACEUTICAL COMPOSITION FOR PREVENTING OR TREATING TREATMENT-RESISTANT CANCER” (JIMRO CO., LTD., priority 2019, published 2022):
pEC50: −log10 of the molar value.

Legend:
Type in all cases: cell-based
[1] = system: Hut102 ATL cell line; experiment: PDT using 5-ALA, cell survival rate by Cell Counting Kit-8, Hut102; conditions: for pEC50: HuT-102, light or radiation study, 4 h, Hut102, 5-ALA loaded 4 hours
Description: (§1) ATN-1, C8166, TL-Om1, Hut102, and MT-1 were used as ATL cell lines. Among them, lenalidomide-sensitive cell line was Hut102 and lenalidomide-resistant cell line was C8166. The sensitivity of ATN-1, TL-Om1, and MT-1 to lenalidomide was unknown. Meanwhile, tretinoin-sensitive cell line was C8166 and tretinoin-resistant cell line was Hut102. The sensitivity of ATN-1, TL-Om1, and MT-1 to tretinoin was unknown. In addition, mogamulizumab-sensitive cell lines were ATN-1, TL-Om1, and MT-1, and mogamulizumab-resistant cell line was Hut102. The sensitivity of C8166 to mogamulizumab was unknown. These cells were passaged and cultured. For the experiment, cells were prepared to a density of 1×10^6 cells/ml at the beginning of the experiment.
(§2) To the cell suspension, 5-ALA was added at concentrations of 0, 0.0625, 0.125, 0.25, and 0.5 mM and loaded for 4 hours. The cell after 5-ALA loading was washed and irradiated with light (0, 10, 30, and 100 J/cm^2) at a central wavelength of 630 nm, and cell survival rate (%) was calculated by Cell Counting Kit-8.

[2] = system: MT-1 ATL cell line; experiment: PDT using 5-ALA, cell survival rate by Cell Counting Kit-8, MT-1; conditions: light or radiation study, 4 h, 5-ALA loaded 4 hours
Description: as §1, §2

[3] = system: ATN-1 ATL cell line; experiment: PDT using 5-ALA, cell survival rate by Cell Counting Kit-8, ATN-1; conditions: Homo sapiens, ATN-1, light or radiation study, 4 h, 5-ALA loaded 4 hours
Description: as §1, §2

[4] = system: C8166 ATL cell line; experiment: PDT using 5-ALA, cell survival rate by Cell Counting Kit-8, C8166; conditions: for pEC50: Homo sapiens, C8166, light or radiation study, 4 h, C8166, 5-ALA loaded 4 hours
Description: as §1, §2

[5] = system: LAMA84-r imatinib-resistant CML cell line; experiment: PDT using 5-ALA, cell survival rate by Cell Counting Kit-8, LAMA84-r
Procedure: (§3) LAMA84-r was used as imatinib-resistant CML cell line and the original cell line LAMA84-s (imatinib-sensitive) was used as a comparative control. In addition, K562/ADR was used as doxorubicin-resistant CML cell line and the original cell line K562 (doxorubicin-sensitive) was used as a comparative control. These cells were passaged and cultured. For the experiment, cells were prepared to a density of 1×10^6 cells/ml at the beginning of the experiment.
as §2

[6] = system: TL-Om1 ATL cell line; experiment: PDT using 5-ALA, cell survival rate by Cell Counting Kit-8, TL-Om1; conditions: light or radiation study, 4 h, 5-ALA loaded 4 hours
Description: as §1, §2

[7] = system: K562/ADR doxorubicin-resistant CML cell line; experiment: PDT using 5-ALA, cell survival rate by Cell Counting Kit-8, K562/ADR
Procedure: as §3, §2

NCC(=O)CCC(=O)O [5-ALA, 5-aminolevulinic acid]
cell killing by PDT using 5-ALA ([1]; HuT102, mogamulizumab-resistant and tretinoin-resistant cell line, FIG. 1): killed
pEC50 ([1]; 10 J/cm^2 at 630 nm): 3.36
pEC50 ([1]; 30 J/cm^2 at 630 nm): 3.56
pEC50 ([1]; 100 J/cm^2 at 630 nm): 3.76
cell killing effect of PDT using 5-ALA relative to sensitive cell lines ([1]; mogamulizumab-resistant Hut102 versus the other sensitive cell lines (ATN-1, TL-Om1, MT-1)): at least comparable
pEC50 ([2]; 10 J/cm^2 at 630 nm): < 3.30
pEC50 ([2]; 30 J/cm^2 at 630 nm): 3.69
pEC50 ([2]; 100 J/cm^2 at 630 nm): 3.94
pEC50 ([3]; 10 J/cm^2 at 630 nm): 3.95
pEC50 ([3]; 30 J/cm^2 at 630 nm): 4.06
pEC50 ([3]; 100 J/cm^2 at 630 nm): 4.08
cell killing by PDT using 5-ALA ([4]; C8166, lenalidomide-resistant cell line, FIG. 1): killed
pEC50 ([4]; 10 J/cm^2 at 630 nm): 3.95
pEC50 ([4]; 30 J/cm^2 at 630 nm): 4.06
pEC50 ([4]; 100 J/cm^2 at 630 nm): 4.11
cell killing effect of PDT using 5-ALA relative to sensitive cell line ([4]; lenalidomide-resistant C8166 versus lenalidomide-sensitive Hut102): comparable
cell killing effect of PDT using 5-ALA relative to sensitive cell line ([4]; tretinoin-resistant cell line C8166 versus tretinoin-sensitive cell line Hut102 (so in the source)): comparable
cell killing by PDT using 5-ALA ([5]; LAMA84-r, imatinib-resistant cell line, FIG. 2): killed
cell killing effect of PDT using 5-ALA relative to sensitive cell line ([5]; imatinib-resistant LAMA84-r versus LAMA84-s): comparable
pEC50 ([6]; 10 J/cm^2 at 630 nm): 3.57
pEC50 ([6]; 30 J/cm^2 at 630 nm): 3.85
pEC50 ([6]; 100 J/cm^2 at 630 nm): 4.04
cell killing by PDT using 5-ALA ([7]; K562/ADR, doxorubicin-resistant cell line, FIG. 2): killed
cell killing effect of PDT using 5-ALA relative to sensitive cell line ([7]; doxorubicin-resistant K562/ADR versus K562): comparable
